Assay [1] concerns tumor necrosis factor (α). Description: Cytokine induction in human cells: tumor necrosis factor (α) secreted by PBMCs, ELISA. Format: cell-based. Particulars: PBMC, incubated 18 to 24 hours, TNF determined by ELISA, read-out: Lowest Effective Concentration (μM) Tumor Necrosis Factor. The source says:
(§1) An in vitro human blood cell system was used to assess cytokine induction by compounds of the invention. Activity is based on the measurement of interferon and tumor necrosis factor (α) (IFN and TNF, respectively) secreted into culture media as described by Testerman et. al. In “Cytokine Induction by the Immunomodulators Imiquimod and S-27609”, Journal of Leukocyte Biology, 58, 365-372 (September, 1995).
(§2) Whole blood is collected by venipuncture into EDTA vacutainer tubes from healthy human donors. Peripheral blood mononuclear cells (PBMCs) are separated from whole blood by density gradient centrifugation using Histopaque®-1077 (Sigma Chemicals, St. Louis, Mo.). The PBMCs are suspended at 3-4×10^6 cells/mL in RPMI 1640 medium containing 10% fetal bovine serum, 2 mM L-glutamine and 1% penicillin/streptomycin solution (RPMI complete). The PBMC suspension is added to 48 well flat bottom sterile tissue culture plates (Costar, Cambridge, Mass. or Becton Dickinson Labware, Lincoln Park, N.J.) containing an equal volume of RPMI complete media containing test compound.
(§3) The compounds are solubilized in dimethyl sulfoxide (DMSO). The DMSO concentration should not exceed a final concentration of 1% for addition to the culture wells.
(§4) The solution of test compound is added at 60 μM to the first well containing RPMI complete and serial (three fold or ten fold) dilutions are made. The PBMC suspension is then added to the wells in an equal volume, bringing the test compound concentrations to the desired range. The final concentration of PBMC suspension is 1.5-2×10^6 cells/mL. The plates are covered with sterile plastic lids, mixed gently and then incubated for 18 to 24 hours at 37° C. in a 5% carbon dioxide atmosphere.
(§5) Following incubation the plates are centrifuged for 5-10 minutes at 1000 rpm (˜200×g) at 4° C. The cell culture supernatant is removed with a sterile polypropylene pipet and transferred to sterile polypropylene tubes. Samples are maintained at −30 to −70° C. until analysis. The samples are analyzed for interferon (α) by either ELISA or bioassay and for tumor necrosis factor (α) by ELISA.
Tumor necrosis factor (α) (TNF)concentration is determined using ELISA kits available from Genzyme, Cambridge, Mass.; R&D Systems, Minneapolis, Minn.; or Pharmingen, San Diego, Calif.
(§6) The table below lists the lowest concentration found to induce interferon and the lowest concentration found to induce tumor necrosis factor for each compound. […] Unless otherwise indicated, the interferon biosynthesis was determined by ELISA.

The subject of assay [2] is interferon (α). Nature of the assay: Cytokine induction in human cells: interferon secreted by PBMCs, ELISA. Format: cell-based. Particulars: PBMC, incubated 18 to 24 hours, interferon determined by ELISA, read-out: Lowest Effective Concentration (μM) Interferon.
Excerpt: as §1, §2, §3, §4, §5
Interferon (α) concentration is determined by ELISA using a Human Multi-Species kit from PBL Biomedical Laboratories, New Brunswick, N.J.
as §6

Each structure is given as a SMILES string. Counter-ions that a name gives are not always drawn.

Among the data in patent publication US6756382B2, “Amide substituted imidazoquinolines” (3M Innovative Properties Company, priority 1999, dated 2004) are minimal effective concentration values, retold here.

`COC(=O)CCCCCCCCC(=O)NCCCCn1cnc2c(N)nc3ccccc3c21` [Example 101]: the values for the minimal effective concentration in assay [1] and in assay [2] were over 30 µM and 3.33 µM, respectively.
Taken in the same sequence, the figures for `CC(=O)N(CCCCn1cnc2c(N)nc3ccccc3c21)Cc1ccccc1C` [Example 144] were over 30 µM and 1.11 µM.
Consider `Cc1nc2c(N)nc3ccccc3c2n1CCCCNC(=O)c1ccccc1` [Example 4, N^1-[4-(4-Amino-2-methyl-1H-imidazo[4,5-c]quinolin-1-yl)butyl]benzamide], for which the figures for the minimal effective concentration in assay [1] and in assay [2] were 0.37 µM and 0.04 µM, respectively.
`CC(=O)N(CCCCn1cnc2c(N)nc3ccccc3c21)Cc1cc([N+](=O)[O-])ccc1Cl` [Example 125]: the minimal effective concentration in assay [1] was over 30 µM; in assay [2] it was 1.11 µM.
Taken in the same sequence, the figures for `Nc1nc2ccccc2c2c1ncn2CCCCNC(=O)c1cccnc1Cl` [Example 97] were 3.33 µM and 0.12 µM.
Taken in the same sequence, the figures for `Nc1nc2ccccc2c2c1ncn2CCCCNC(=O)c1cnc2ccccc2c1` [Example 40, N^3-[4-(4-Amino-1H-imidazo[4,5-c]quinolin-1-yl)butyl]-3-quinolinecarboxamide] were 30 µM and 0.37 µM.
The matching figures for `COCCc1nc2c(N)nc3c(c2n1CCCCNC(=O)Cc1ccccc1)CCCC3` [Example 174]: 1 µM and 0.001 µM.
In the case of `CC(=O)N(CCCCn1cnc2c(N)nc3ccccc3c21)Cc1ccc(F)c(F)c1` [Example 129], the minimal effective concentration was over 30 µM in assay [1] and 3.33 µM in assay [2].
Taken in the same sequence, the figures for `Nc1nc2ccccc2c2c1ncn2CCCNC(=O)c1ccccc1` [Example 11, N^1-[3-(4-Amino-1H-imidazo[4,5-c]quinolin-1-yl)propyl]benzamide Hydrochloride] were over 30 µM and 1.11 µM.
Taken in the same sequence, the figures for `CC(=O)N(CCCCn1cnc2c(N)nc3ccccc3c21)Cc1ccccc1Sc1ccc(Cl)cc1` [Example 127] were over 30 µM and over 30 µM.
`COCCc1nc2c(N)nc3ccccc3c2n1CCCCNC(=O)[C@H]1CC(=O)N(C)[C@@H]1c1cccnc1` [Example 184, (2S,3S)-N-{4-[4-amino-2-(2-methoxyethyl)-1H-imidazo[4,5-c]quinolin-1-yl]butyl}-1-methyl-5-oxo-2-pyridin-3-ylpyrrolidine-3-carboxamide]: the minimal effective concentration in assay [1] was determined as 1.11 µM; in assay [2] it was 0.12 µM.
The matching figures for `CC(=O)N(CCCCn1cnc2c(N)nc3ccccc3c21)Cc1ccoc1` [Example 135]: over 30 µM and 0.12 µM.
Taken in the same sequence, the figures for `CC(=O)N(CCCCn1cnc2c(N)nc3ccccc3c21)Cc1ccco1` [Example 134] were over 30 µM and 0.37 µM.
The matching figures for `CCCCc1nc2c(N)nc3ccccc3c2n1CCCNC(=O)c1cc2ccccc2cn1` [Example 188, N-[3-(4-amino-2-butyl-1H-imidazo[4,5-c]quinolin-1-yl)propyl]isoquinoline-3-carboxamide]: 1.11 µM and 0.37 µM.
For the compound `CC(=O)N(CCCCn1cnc2c(N)nc3ccccc3c21)Cc1ccc([N+](=O)[O-])cc1` [Example 140], the minimal effective concentration is over 30 µM in assay [1] and 1.11 µM in assay [2].
Consider `CCc1ccc(CN(CCCCn2cnc3c(N)nc4ccccc4c32)C(C)=O)o1` [Example 133], for which the minimal effective concentration in assay [1] was over 30 µM; in assay [2] it was 3.33 µM.
Taken in the same sequence, the figures for `Nc1nc2ccccc2c2c1ncn2CCCCNC(=O)Cc1cccs1` [Example 108, N^1-(4-(4-Amino-1H-imidazo[4,5-c]quinolin-1-yl)butyl)-2-(2-thienyl)acetamide] were 10 µM and 0.12 µM.
The matching figures for `CN(CCc1ccccn1)Cc1ccc(C(=O)NCCCCn2cnc3c(N)nc4ccccc4c32)cc1` [Example 107]: 10 µM and 0.12 µM.
For the compound `COCCc1nc2c(N)nc3c(c2n1CCCCNC(=O)c1ccccc1)CCCC3` [Example 172], the minimal effective concentration is 1 µM in assay [1] and 0.0001 µM in assay [2].
The matching figures for `COCCc1nc2c(N)nc3ccccc3c2n1CCCCNC(=O)C1CCCN1S(=O)(=O)c1ccc(C(C)(C)C)cc1` (stereo in doubt) [Example 185, N-{4-[4-amino-2-(2-methoxyethyl)-1H-imidazo[4,5-c]quinolin-1-yl]butyl}-1-[(4-tert-butylphenyl)sulfonyl]-L-prolinamide]: 3.33 µM and 1.11 µM.
The matching figures for `C#CCCC(=O)NCCCCn1cnc2c(N)nc3ccccc3c21` [Example 115]: 30 µM and 1.11 µM.
Taken in the same sequence, the figures for `COCCc1nc2c(N)nc3ccccc3c2n1CCCCNC(=O)CCCCCCC(=O)OC` [Example 159] were 1 µM and 0.01 µM.
For the compound `CC(=O)NCCCCn1cnc2c(N)nc3ccccc3c21` [Example 88], the minimal effective concentration in assay [1] is over 30 µM; in assay [2], 10 µM.
Taken in the same sequence, the figures for `Nc1nc2ccccc2c2c1ncn2CCCCCNC(=O)c1ccccc1` [Example 10, N^1-[5-(4-Amino-1H-imidazo[4,5-c]quinolin-1-yl)pentyl]benzamide Hydrochloride] were over 30 µM and 3.33 µM.
For `CC(=O)N(CCCCn1cnc2c(N)nc3ccccc3c21)Cc1ccc(C)cc1C` [Example 132], the figures for the minimal effective concentration in assay [1] and in assay [2] were 3.33 µM and 1.11 µM, respectively.
The matching figures for `CCc1nc2c(N)nc3ccccc3c2n1CCCCNC(=O)c1ccccc1` [Example 5, N^1-[4-(4-Amino-2-ethyl-1H-imidazo[4,5-c]quinolin-1-yl)butyl]benzamide]: 0.37 µM and 0.04 µM.
Taken in the same sequence, the figures for `COc1ccc2ccccc2c1CN(CCCCn1cnc2c(N)nc3ccccc3c21)C(C)=O` [Example 139] were over 30 µM and over 30 µM.
In the case of `Nc1nc2ccccc2c2c1ncn2CCCCNC(=O)c1ccc(CN2CCN(C(c3ccccc3)c3ccccc3)CC2)cc1` [Example 104], the minimal effective concentration in assay [1] and in assay [2] was over 30 µM in each case.
Turning to `COCCc1nc2c(N)nc3ccccc3c2n1CCCCNC(=O)c1ccc(C(C)(C)C)cc1` [Example 156], the results for the minimal effective concentration in assay [1] and in assay [2] were 1 µM and 0.001 µM, respectively.
The matching figures for `Nc1nc2ccccc2c2c1ncn2CCCCNC(=O)C12CC3CC(CC(C3)C1)C2` [Example 90]: 10 µM and 3.33 µM.
The matching figures for `COCCc1nc2c(N)nc3ccccc3c2n1CCCCNC(=O)C1CCCC1` [Example 149]: 1 µM and 0.001 µM.
The matching figures for `CCCCCCCCN(CCCCn1cnc2c(N)nc3ccccc3c21)C(C)=O` [Example 137]: over 30 µM and 10 µM.
